Each block holds one substance with its values, some of them ahead of it.
Legend:
[1] = system: human prostate cancer cell line DU145; assay: Inhibition of proliferation of prostate cancer cell line DU145 (CellTiter Glo luminescence); assay type: cell-based; settings: DU145 cells; for cell proliferation (without synthetic peptide set to 100): final concentration 30 μM; for inhibitory activity against cell proliferation: cell-penetrating peptide substituted or removed, same way as Example 2
Procedure: (§1) Human prostate cancer cell line DU145 was cultured in DMEM containing 10% fetal cattle serum (FCS) at 37° C. and 5% CO2 with passaging. DU145 cells were seeded into 96-well plates at 5000 cells/well, then cultured at 37° C. for 24 hours, and then further cultured for 48 hours in 10% FCS-containing DMEM that contains each of the synthesized peptides of Example 1 at a final concentration of 1 μM, 10 μM, 50 μM or 100 μM. The medium was discarded after culturing, and then 25 μL of 50-fold diluted solution of CellTiter Glo Reagent (Promega) (diluted with PBS (−) containing 0.1% NP-40) was added to each well. Next, the resulting solution was shaken at room temperature for 10 minutes, and then luminescence level was measured with a plate reader (Infinite M200, Tecan). A relative luminescence level of each synthetic peptide was calculated when the average luminescence level measured for control cells cultured in 10% FCS-containing DMEM without any synthetic peptide was set to 100, and was used as an index of cell proliferation.
The peptides listed in Table 2 below were designed and evaluated for their inhibitory activities against proliferation of DU145 cells in the same way as in Example 2. Each of the peptides 4T-2-D-1-4, 4H-2-D-1-4 and 4F-2-D-1-4 is a peptide in which the octaarginine sequence of the peptide 42-D-1-4 is substituted with an amino acid sequence of another cell-penetrating peptide, and each has, from the N-terminal side, an amino acid sequence of TAT peptide, HTLV-II-Rex or FHV coat (35-49), a linker sequence of one Gly residue, and an amino acid sequence corresponding to G45-Y51 of the PH domain. The peptides #R8(−)-2-D-1, #R8(−)-2-D-1-4 and #R8(−)-6-A-2 are peptides with the octaarginine sequence and the linker sequence removed from the peptides #2-D-1, #2-D-1-4 and #6-A-2, respectively.
The peptides listed in Table 3 below were designed and evaluated for their inhibitory activities against proliferation of DU145 cells, in the same way as in Example 2 except that the final concentrations of the synthetic peptides were set to 3 μM, 10 μM and 30 μM. The peptides #2-D-1-4-1A to #2-D-1-4-7A are peptides in which GLTIYFY (SEQ ID NO: 36) of peptide #2-D-1-4 was substituted with Ala one by one from the N-terminal side.

[2] = system: human breast cancer cell line T47D; assay: Inhibition of proliferation of T47D cells; assay type: cell-based; settings: cultured 96 hours with peptide
DU145 cells = assay: Antitumor effect in DU145 tumor-bearing model; assay type: in vivo, BALB/c nude mice; settings: 2 mg/body intratumoral
Procedure: DU145 cells (5.0×10^6 cells) were injected subcutaneously into right flank of BALB/c nude mice (female, 4 weeks old). On days 14, 17 and 20 after implantation, solvent (5% DMSO, control) or the synthetic peptide #2-D-1-4 (2 mg/body) was intratumorally administered. Tumor diameters were measured with calipers every 3 days starting on day 14 after implantation, and tumor volumes (longer diameter×shorter diameter×shorter diameter/2) were calculated. The mice were euthanized on day 32 after implantation, then tumor mass were collected and their weights were measured.

Cyclin D1 (Ccnd1) = assay: Real-time PCR of Cyclin D1 gene expression in DU145 cells; assay type: cell-based, human; settings: peptide 10 μM, 15 and 30 minutes
Procedure: (§2) DU145 cells, cultured in DMEM containing 10% fetal cattle serum (FCS) at 37° C. and 5% CO2 with passage, were seeded into 6-well plates at 5.0×10^5 cells/well, and then cultured at 37° C. for 24 hours. The cells were incubated for 2 hours in serum-free DMEM. Then, the synthetic peptide #2-D-1-4 (final concentration 10 μM) was added, and cells were collected 15 minutes later and 30 minutes later. Cells without addition of any synthetic peptide were prepared in the same way.
(§3) Total RNA was extracted from the cells with use of TRIzol (Thermo Fisher Scientific). cDNA was synthesized from the total RNA with use of ReverTra Ace (TOYOBO) and random hexamer primers. Real-time PCR was carried out with the following primer sets and MX3000P (Agilent Technologies, Inc.) to measure the relative gene expression levels of Cyclin D1 (Ccnd1), which is associated with cell proliferation, and Survivin, which is associated with cancer cell survival.

[3] = system: human cervical cancer cell line HeLa; assay: Inhibition of proliferation of HeLa cells; assay type: cell-based; settings: same manner as Example 2
[4] = system: human pancreatic cancer cell line BxPC3; assay: Inhibition of proliferation of BxPC3 cells; assay type: cell-based; settings: BxPC3, same manner as Example 2
[5] = system: human glioma cell line U251; assay: Inhibition of proliferation of U251 cells; assay type: cell-based; settings: U251, same manner as Example 2
Survivin = assay: Real-time PCR of Survivin gene expression in DU145 cells; assay type: cell-based, human; settings: peptide 10 μM, 15 and 30 minutes
Procedure: as §2, §3

[6] = system: human liver cancer cell line Hep3B; assay: Inhibition of proliferation of Hep3B cells; assay type: cell-based; settings: same manner as Example 2
[7] = system: human melanoma cell line A375; assay: Inhibition of proliferation of A375 cells; assay type: cell-based; settings: A375, same manner as Example 2
Procedure: as §1, with “proliferation. […]” for “proliferation.”

[8] = target: T1, EGFR/STAP-2 interaction (EGFR-HA and GST-STAP-2) (Homo sapiens, UniProt P00533, C187G/DEL142-186); assay: GST pull-down and immunoblot of EGFR/STAP-2 interaction; assay type: binding; settings: HEK293T lysate, peptide 1 μM or 50 μM, 4° C. 1 hour
T1 construct: expressed in transfected cells; host or cells: HEK293T

[9] = system: human lung cancer cell line A549; assay: Inhibition of proliferation of A549 cells; assay type: cell-based; settings: A549, same manner as Example 2

Substance: RRRRRRRRGG GLAIYFY (RRRRRRRRGGGLAIYFY) [#2-D-1-4-3A]
cell proliferation (without synthetic peptide set to 100) [1]: approximately 50%

Substance: GRKKRRQRRRPPQGGLTIYFY [#T-2-D-1-4]
inhibitory activity against cell proliferation [1]: the same extent of inhibitory activity against cell proliferation as that of the peptide #2-D-1-4

Substance: TRRQRTRRARRNRGGLTIYFY [#H-2-D-1-4]
inhibitory activity against cell proliferation [1]: the same extent of inhibitory activity against cell proliferation as that of the peptide #2-D-1-4

complex between EGFR-HA and GST-STAP-2 in pull-down fraction [8]: not detected
Substance: RRRRRRRRGG GLTIYFY (RRRRRRRRGGGLTIYFY) [#2-D-1-4]
activity to inhibit proliferation [2]: exhibited the activity to inhibit proliferation
final weight of the tumor mass compared to the control (DU145 cells; days 14, 17 and 20, day 32 after implantation): significant reduction
tumor volume compared to the control (DU145 cells; days 14, 17 and 20 after implantation): inhibition of increase in tumor volume
gene expression level of Ccnd1 (Cyclin D1 (Ccnd1)): reduced
activity to inhibit proliferation [3]: exhibited the activity to inhibit proliferation
activity to inhibit proliferation [4]: exhibited the activity to inhibit proliferation
activity to inhibit proliferation [5]: exhibited the activity to inhibit proliferation
gene expression level of Survivin (Survivin): reduced
activity to inhibit proliferation [6]: exhibited the activity to inhibit proliferation
activity to inhibit proliferation [7]: exhibited the activity to inhibit proliferation
activity to inhibit proliferation [9]: exhibited the activity to inhibit proliferation

Substance: GLTIYFY [#R8(−)-2-D-1-4]
inhibitory activity against cell proliferation [1]: none

Substance: QGLTIYFYN [#R8(−)-2-D-1]
inhibitory activity against cell proliferation [1]: none

Substance: RRRRNRTRRNRRRVRGGLTIYFY [#F-2-D-1-4]
inhibitory activity against cell proliferation [1]: the same extent of inhibitory activity against cell proliferation as that of the peptide #2-D-1-4

Substance: VVELRVP [#R8(−)-6-A-2]
inhibitory activity against cell proliferation [1]: none

Substance: RRRRRRRRGG GLTIYAY (RRRRRRRRGGGLTIYAY) [#2-D-1-4-6A]
cell proliferation (without synthetic peptide set to 100) [1]: approximately 50%

Substance: RRRRRRRRGG GATIYFY (RRRRRRRRGGGATIYFY) [#2-D-1-4-2A]
cell proliferation (without synthetic peptide set to 100) [1]: approximately 50%

From US20240043476A1, “ANTI-TUMOR PEPTIDE AND USE THEREOF” (National University Corporation Hokkaido University, priority 2020, published 2024)
